These are literature values, as cited in patent US20140271866A1, “TRANSDERMAL DRUG DELIVERY SYSTEM CONTAINING RIVASTIGMINE” (priority 2013, published 2014).

The conditions of this series: in vivo.

Consider `CCN(C)C(=O)Oc1cccc([C@H](C)N(C)C)c1` [Rivastigmine, rivastigmine], for which the half-life entry is “about 1.5 hours”.
